Measurements reported in ChEMBL document CHEMBL1201862, “PubChem BioAssay data set” (2004).
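Dose response: 5 concentrations. Exposure: 48 h. Format: 96-well plates. Endpoint: linear interpolation; highest concentration if not reached. Here, GI50 denotes the concentration required for 50% inhibition of growth.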 Activity calls are given as the source filed them. Cut-off read from the data, not from the text of the source: active = GI50 up to about 1.1 µM and inactive = higher.

How the values were obtained:
Test in all cases: NCI-60 cell line screen, 48 h
SF-539 = tested on: SF-539
UO-31 = tested on: UO-31
CAKI-1 = tested on: CAKI-1
HL-60 = tested on: HL-60
UACC-62 = tested on: UACC-62
A498 = tested on: A498
BT-549 = tested on: BT-549
MDA-MB-435 = tested on: MDA-MB-435
A549 = tested on: A549
MOLT-4 = tested on: MOLT-4
SK-MEL-5 = tested on: SK-MEL-5
UACC-257 = tested on: UACC-257
SNB-19 = tested on: SNB-19
EKVX = tested on: EKVX
U-251 = tested on: U-251
IGROV-1 = tested on: IGROV-1
OVCAR-3 = tested on: OVCAR-3
OVCAR-4 = tested on: OVCAR-4
RPMI-8226 = tested on: RPMI-8226

SMILES	GI50 (SF-539)	GI50 (UO-31)	GI50 (CAKI-1)	GI50 (HL-60)	GI50 (UACC-62)	GI50 (A498)	GI50 (BT-549)	GI50 (MDA-MB-435)	GI50 (A549)	GI50 (MOLT-4)	GI50 (SK-MEL-5)	GI50 (UACC-257)	GI50 (SNB-19)	GI50 (EKVX)	GI50 (U-251)	GI50 (IGROV-1)	GI50 (OVCAR-3)	GI50 (OVCAR-4)	GI50 (RPMI-8226)
CCC(Cc1cnc2nc(N)nc(N)c2n1)c1ccc(C(=O)NC(CCC(=O)O)C(=O)O)cc1 (stereo not drawn)	0.01 µM (active)	0.000382 µM (active)	0.01 µM (active)	< 0.0001 µM (active)	0.000396 µM (active)	> 100 µM (inactive)	> 100 µM (inactive)	0.000736 µM (active)	0.000507 µM (active)	0.000264 µM (active)	0.00539 µM (active)	0.103 µM (active)	0.00419 µM (active)	0.000249 µM (active)					
C/C=C(/C)C(=O)O[C@H]1C(C)=C[C@]23C(=O)[C@@H](C=C(COC(C)=O)[C@@H](O)[C@]12O)[C@H]1[C@@H](C[C@H]3C)[C@@]1(C)OC(=O)/C(C)=C\C	2.81 µM (inactive)	0.442 µM (active)	2.75 µM (inactive)	0.094 µM (active)	2.37 µM (inactive)	2.72 µM (inactive)	2.38 µM (inactive)	2.13 µM (inactive)	0.15 µM (active)	0.0449 µM (active)	0.307 µM (active)	3.63 µM (inactive)	3.01 µM (inactive)	2.9 µM (inactive)	2.45 µM (inactive)	3.2 µM (inactive)	3.05 µM (inactive)	2.77 µM (inactive)	
COC(=O)C(NC(=O)CNC(=O)CSc1nnc(COc2ccc(Cl)cc2)n1-c1ccccc1)C(C)C (stereo not drawn)	17.1 µM (inactive)	17.8 µM (inactive)	14.7 µM (inactive)		16.6 µM (inactive)	21.6 µM (inactive)	18.5 µM (inactive)	21.2 µM (inactive)	31.3 µM (inactive)	22.3 µM (inactive)	16.2 µM (inactive)	18 µM (inactive)	20.3 µM (inactive)	35.9 µM (inactive)	18.3 µM (inactive)	18.8 µM (inactive)	17.3 µM (inactive)	22.1 µM (inactive)	20.4 µM (inactive)
C[C@H](CCC1=NCCN1)[C@H]1CC[C@H]2[C@@H]3CC[C@@H]4C[C@H](O)CC[C@]4(C)[C@H]3CC[C@]12C	10.3 µM (inactive)	14.2 µM (inactive)	3.51 µM (inactive)		2.07 µM (inactive)	14.9 µM (inactive)	14.4 µM (inactive)	4.53 µM (inactive)	8 µM (inactive)	2.7 µM (inactive)	1.63 µM (inactive)	2.55 µM (inactive)	13.9 µM (inactive)	13.3 µM (inactive)	6.05 µM (inactive)	8.28 µM (inactive)	0.394 µM (active)	12.9 µM (inactive)	3.13 µM (inactive)
Nc1nc(Nc2ccccc2)sc1C(=O)c1c[nH]c2ccccc12	12.4 µM (inactive)	2.56 µM (inactive)		19.1 µM (inactive)	14.8 µM (inactive)	11.4 µM (inactive)	14.8 µM (inactive)	11.2 µM (inactive)	7.52 µM (inactive)	2.08 µM (inactive)	11.8 µM (inactive)	10.8 µM (inactive)	3.28 µM (inactive)	5.94 µM (inactive)	10.7 µM (inactive)	12.9 µM (inactive)	13.4 µM (inactive)	10.3 µM (inactive)	10.7 µM (inactive)
Cc1cc2nc3c(C#N)c4c(c(Cl)n3c2cc1C)CCC4	25.3 µM (inactive)		18.5 µM (inactive)			> 100 µM (inactive)	22.5 µM (inactive)	19.3 µM (inactive)		26 µM (inactive)	21.9 µM (inactive)	36.7 µM (inactive)		61.1 µM (inactive)	15.1 µM (inactive)		21.3 µM (inactive)	43 µM (inactive)	16 µM (inactive)
Brc1cccc[n+]1-c1ccc2cc(-[n+]3ccccc3Br)ccc2c1	19.3 µM (inactive)	18.1 µM (inactive)	> 100 µM (inactive)	28.6 µM (inactive)	45.1 µM (inactive)	> 100 µM (inactive)	97.9 µM (inactive)	80.9 µM (inactive)	38.9 µM (inactive)		77.3 µM (inactive)	> 100 µM (inactive)	72.8 µM (inactive)	47.6 µM (inactive)	15.6 µM (inactive)	11.4 µM (inactive)	19.8 µM (inactive)		19.5 µM (inactive)
Oc1c(CN2CCOCC2)ccc2cccnc12	> 10 µM (inactive)	8.38 µM (inactive)	5.16 µM (inactive)			> 10 µM (inactive)	1.51 µM (inactive)	> 10 µM (inactive)	> 10 µM (inactive)	4.11 µM (inactive)	> 10 µM (inactive)	> 10 µM (inactive)	> 10 µM (inactive)	> 10 µM (inactive)	> 10 µM (inactive)	> 10 µM (inactive)	> 10 µM (inactive)	> 10 µM (inactive)	> 10 µM (inactive)
